Measured values published in ChEMBL document CHEMBL1201862, “PubChem BioAssay data set” (2004).
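Grown in 96-well plates, cells were treated for 48 hours with each compound at five concentrations. Insufficient inhibition: endpoint recorded as highest concentration tested. At the GI50, growth is halved.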 The source made the active and inactive calls. Rule as the data show it: active = GI50 up to about 1.1 µM and inactive = higher.

Tests used:
Assay in all cases: NCI anticancer screen, dose series, 48 h
A498 = tested on: A498
ACHN = tested on: ACHN
EKVX = tested on: EKVX
HCC 2998 = tested on: HCC 2998
HL-60 = tested on: HL-60
HOP-92 = tested on: HOP-92
K562 = tested on: K562
KM12 = tested on: KM12
Malme-3M = tested on: Malme-3M
OVCAR-4 = tested on: OVCAR-4
RPMI-8226 = tested on: RPMI-8226
SF-539 = tested on: SF-539
SK-MEL-2 = tested on: SK-MEL-2
SK-MEL-5 = tested on: SK-MEL-5
SN12C = tested on: SN12C
SNB-19 = tested on: SNB-19
TK-10 = tested on: TK-10
UACC-257 = tested on: UACC-257
NCI-H226 = tested on: NCI-H226
OVCAR-8 = tested on: OVCAR-8

Measured: GI50

CCOc1ccccc1-c1nc2c(s1)C(=O)c1ccccc1C2=O
inactive: A498 15.9 µM | ACHN 14.9 µM | EKVX 17.2 µM | HCC 2998 14.5 µM | HL-60 1.92 µM | HOP-92 12 µM | K562 4.61 µM | KM12 15.4 µM | Malme-3M 3.68 µM | OVCAR-4 9.68 µM | RPMI-8226 7.26 µM | SF-539 16.4 µM | SK-MEL-2 15.7 µM | SK-MEL-5 5.12 µM | SN12C 18.4 µM | SNB-19 25.8 µM | TK-10 19.3 µM | UACC-257 12.9 µM

O=C(/C=C\c1ccccc1-c1ccccc1)c1ccccc1
inactive: A498 > 100 µM | ACHN > 100 µM | EKVX > 100 µM | HCC 2998 > 100 µM | HL-60 60.4 µM | HOP-92 > 100 µM | K562 > 100 µM | KM12 29.4 µM | NCI-H226 > 100 µM | OVCAR-4 11.1 µM | OVCAR-8 > 100 µM | RPMI-8226 30.8 µM | SF-539 > 100 µM | SK-MEL-5 > 100 µM | SN12C > 100 µM | TK-10 > 100 µM | UACC-257 > 100 µM

CC(C)c1cccc(C(C)C)c1NC(=O)CCC(=O)NN
inactive: A498 > 100 µM | ACHN > 100 µM | EKVX > 100 µM | HCC 2998 > 100 µM | HL-60 > 100 µM | HOP-92 > 100 µM | K562 58.6 µM | KM12 > 100 µM | Malme-3M > 100 µM | NCI-H226 > 100 µM | OVCAR-4 > 100 µM | OVCAR-8 > 100 µM | RPMI-8226 46.1 µM | SF-539 > 100 µM | SK-MEL-5 > 100 µM | SN12C > 100 µM | SNB-19 > 100 µM | TK-10 > 100 µM | UACC-257 > 100 µM

Cc1cc(=O)n(-c2c(C)cccc2Cl)c(/C=C(\O)c2ccncc2)n1
inactive: A498 > 100 µM | ACHN > 100 µM | EKVX > 100 µM | HCC 2998 > 100 µM | HL-60 6.21 µM | HOP-92 62.1 µM | K562 44.8 µM | KM12 48.5 µM | Malme-3M > 100 µM | NCI-H226 > 100 µM | OVCAR-4 > 100 µM | OVCAR-8 > 100 µM | SF-539 > 100 µM | SK-MEL-2 > 100 µM | SK-MEL-5 96.4 µM | SN12C > 100 µM | SNB-19 > 100 µM | TK-10 > 100 µM | UACC-257 > 100 µM

CC(C)c1ccc(Cc2ccc(C(C)C)c(NC(=O)C(=O)Cc3cnc4ccccc4n3)c2C(C)C)c(C(C)C)c1NC(=O)C(=O)Cc1cnc2ccccc2n1
inactive: A498 > 100 µM | ACHN > 100 µM | EKVX > 100 µM | HCC 2998 > 100 µM | HL-60 > 100 µM | HOP-92 12.4 µM | K562 > 100 µM | KM12 > 100 µM | Malme-3M > 100 µM | OVCAR-4 > 100 µM | OVCAR-8 > 100 µM | RPMI-8226 > 100 µM | SF-539 > 100 µM | SK-MEL-2 > 100 µM | SK-MEL-5 > 100 µM | SNB-19 > 100 µM | TK-10 > 100 µM | UACC-257 > 100 µM

Oc1cccc(C2SCc3nc4ccccc4n32)c1 (stereo not given)
inactive: A498 13.2 µM | ACHN 33.8 µM | EKVX 43.5 µM | HCC 2998 > 100 µM | HL-60 25.5 µM | HOP-92 47.5 µM | K562 16.9 µM | KM12 73.3 µM | Malme-3M 41.1 µM | NCI-H226 21.2 µM | OVCAR-8 96.2 µM | RPMI-8226 39.3 µM | SF-539 > 100 µM | SK-MEL-2 76 µM | SK-MEL-5 14.8 µM | SN12C 82.2 µM | SNB-19 > 100 µM | TK-10 > 100 µM | UACC-257 31.7 µM

N#CC(C(=O)CCC(=O)Nc1cccc(C(F)(F)F)c1)c1ccc(Cl)cc1 (stereo not given)
inactive: A498 > 100 µM | ACHN > 100 µM | EKVX > 100 µM | HCC 2998 > 100 µM | HL-60 > 100 µM | HOP-92 > 100 µM | K562 > 100 µM | KM12 > 100 µM | Malme-3M > 100 µM | NCI-H226 > 100 µM | OVCAR-4 > 100 µM | OVCAR-8 > 100 µM | RPMI-8226 > 100 µM | SF-539 > 100 µM | SK-MEL-5 > 100 µM | SN12C > 100 µM | SNB-19 > 100 µM | TK-10 > 100 µM | UACC-257 > 100 µM

O=[N+]([O-])C(=C(NCc1ccccc1)NCc1ccccc1)C(Cl)=C(Cl)Cl
inactive: A498 61.7 µM | ACHN 21.6 µM | EKVX 51.3 µM | HCC 2998 40.6 µM | HL-60 20.2 µM | HOP-92 37.3 µM | K562 22.3 µM | KM12 20.3 µM | Malme-3M 19 µM | NCI-H226 39.5 µM | OVCAR-4 31.7 µM | OVCAR-8 36.6 µM | RPMI-8226 29.9 µM | SF-539 43 µM | SK-MEL-5 20.2 µM | SN12C 34.9 µM | SNB-19 28.2 µM | TK-10 35.9 µM | UACC-257 38.1 µM

CCC(CCCCC1CC[C@H]2CC(=O)C[C@@H]12)OC (stereo not given in full)
inactive: A498 > 100 µM | ACHN > 100 µM | HCC 2998 > 100 µM | HL-60 36.7 µM | HOP-92 > 100 µM | K562 26.5 µM | NCI-H226 > 100 µM | OVCAR-8 > 100 µM | SF-539 > 100 µM | SK-MEL-2 > 100 µM | SK-MEL-5 79.8 µM | SN12C > 100 µM | SNB-19 > 100 µM | TK-10 > 100 µM | UACC-257 72.3 µM

Cc1c(C(=O)/C=C/c2ccc3c(c2)OCO3)[n+]([O-])c2ccccc2[n+]1[O-]
inactive: A498 20.4 µM | ACHN 35.6 µM | EKVX 24.7 µM | HCC 2998 23.1 µM | HL-60 30.8 µM | HOP-92 21.1 µM | K562 33 µM | KM12 31.9 µM | Malme-3M 89.5 µM | NCI-H226 16 µM | OVCAR-4 40.6 µM | OVCAR-8 23.8 µM | RPMI-8226 27 µM | SF-539 22.5 µM | SN12C 23 µM | SNB-19 56 µM | TK-10 36.1 µM | UACC-257 31 µM

CN(C)Cc1cc(C(=O)/C=C/c2ccc(Cl)cc2Cl)cc(CN(C)C)c1O
inactive: A498 2.4 µM | ACHN 2.06 µM | EKVX 6.18 µM | HCC 2998 5.89 µM | HL-60 1.96 µM | HOP-92 3.94 µM | K562 1.48 µM | KM12 1.47 µM | Malme-3M 8.85 µM | NCI-H226 8.57 µM | OVCAR-4 2.22 µM | OVCAR-8 2.33 µM | RPMI-8226 3.85 µM | SF-539 4.4 µM | SK-MEL-5 1.96 µM | SN12C 1.78 µM | SNB-19 4.12 µM | TK-10 11.5 µM | UACC-257 5.11 µM
